Where “and” joins values, the source holds several entries; their conditions need not be identical. Equal values may be shown once. Toxic doses and inconclusive results are not listed. Rule for the calls: active = survival T/C of 150% or more; inactive = T/C below 125% in these data.
Test system: C57BL/6 mice, intracerebral ependymoblastoma, median survival T/C
Test: NCI In Vivo Anticancer Drug Screen. Data for tumor model Ependymoblastoma (intracerebral) in C57BL/6 mice
Details: endpoint: median survival time, higher = longer survival
Protocol: The antitumor activity of compounds was measured in mice bearing transplantable tumors. Survival or tumor size were measured and the results are expressed as the measurement made in the treated group (T) divided by the measurement made in the vehicle treated control group (C). The tumor model used in this assay is Ependymoblastoma (intracerebral) in C57BL/6 mice

[1] = dose: 8.0 mg/kg/injection, schedule: Q01DX005 (ip), vehicle: Klucel (hydroxypropylcellulose) (HPC)
[2] = dose: 16.0 mg/kg/injection, schedule: Q01DX005 (ip), vehicle: Klucel (hydroxypropylcellulose) (HPC)
[3] = dose: 32.0 mg/kg/injection, schedule: Q01DX005 (ip), vehicle: Klucel (hydroxypropylcellulose) (HPC)
[4] = dose: 64.0 mg/kg/injection, schedule: Q01DX005 (ip), vehicle: Klucel (hydroxypropylcellulose) (HPC)

Measured: T/C

CCN(CC)CCOc1ccc(/C(=C(\Cl)c2ccccc2)c2ccccc2)cc1
inactive: [1] 97 % of control and 99 % of control | [2] 97 % of control and 108 % of control | [3] 95 % of control and 112 % of control | dose: 32.0 mg/kg/injection, schedule: Q01DX005 (oral), vehicle: Klucel (hydroxypropylcellulose) (HPC) 101 % of control | [4] 88 % of control and 95 % of control | dose: 64.0 mg/kg/injection, schedule: Q01DX005 (oral), vehicle: Klucel (hydroxypropylcellulose) (HPC) 104 % of control | dose: 128.0 mg/kg/injection, schedule: Q01DX005 (oral), vehicle: Klucel (hydroxypropylcellulose) (HPC) 96 % of control

Cc1nc(N)nc(N)c1-c1ccc(Cl)c(Cl)c1
inactive: dose: 0.5 mg/kg/injection, schedule: Q01DX005 (ip), vehicle: saline with Tween-80 106 % of control and 117 % of control | dose: 1.0 mg/kg/injection, schedule: Q01DX005 (ip), vehicle: saline with Tween-80 89 % of control and 97 % of control | dose: 2.0 mg/kg/injection, schedule: Q01DX005 (ip), vehicle: saline with Tween-80 117 % of control | dose: 6.0 mg/kg/injection, schedule: Q04DX003 (ip), vehicle: saline 101 % of control | dose: 8.0 mg/kg/injection, schedule: Q04DX003 (ip), vehicle: saline 112 % of control

N[C@@H](Cc1ccc(N(CCCl)CCCl)cc1)C(=O)O
inactive: dose: 0.5 mg/kg/injection, schedule: Q01DX001 (ip), vehicle: saline 103 % of control | dose: 0.5 mg/kg/injection, schedule: Q01DX005 (ip), vehicle: saline 106 % of control and 110 % of control | dose: 1.0 mg/kg/injection, schedule: Q01DX001 (ip), vehicle: saline 88 % of control | dose: 1.0 mg/kg/injection, schedule: Q01DX005 (ip), vehicle: saline 96 % of control and 109 % of control and 110 % of control | dose: 2.0 mg/kg/injection, schedule: Q01DX001 (ip), vehicle: saline 102 % of control | dose: 2.0 mg/kg/injection, schedule: Q01DX005 (ip), vehicle: saline 98 % of control and 108 % of control | dose: 4.0 mg/kg/injection, schedule: Q01DX005 (ip), vehicle: saline 111 % of control | dose: 8.0 mg/kg/injection, schedule: Q01DX001 (ip), vehicle: saline 119 % of control | dose: 8.0 mg/kg/injection, schedule: Q01DX005 (ip), vehicle: saline 100 % of control

COC1C(O)C(C)OC(OC2C(Oc3cccc4c(O)c5c(=O)oc6ccc(C)c7c(=O)oc(c34)c5c67)OC(C)C(O)C2O)C1O (centres undefined)
inactive: dose: 2.0 mg/kg/injection, schedule: Q01DX005 (ip), vehicle: Klucel (hydroxypropylcellulose) (HPC) 105 % of control and 122 % of control and 124 % of control | dose: 4.0 mg/kg/injection, schedule: Q01DX005 (ip), vehicle: Klucel (hydroxypropylcellulose) (HPC) 95 % of control and 106 % of control | [1] 90 % of control and 111 % of control and 122 % of control | [2] 99 % of control and 113 % of control and 124 % of control | [3] 97 % of control and 103 % of control | [4] 99 % of control and 105 % of control and 107 % of control

c1ccc([C@H]2CN3CCSC3=N2)cc1
inactive: dose: 5.0 mg/kg/injection, schedule: Q01DX005 (ip), vehicle: saline 103 % of control | dose: 5.0 mg/kg/injection, schedule: Q01DX009 (ip), vehicle: saline 99 % of control | dose: 10.0 mg/kg/injection, schedule: Q01DX005 (ip), vehicle: saline 96 % of control | dose: 10.0 mg/kg/injection, schedule: Q01DX009 (ip), vehicle: saline 113 % of control | dose: 20.0 mg/kg/injection, schedule: Q01DX005 (ip), vehicle: saline 101 % of control | dose: 20.0 mg/kg/injection, schedule: Q01DX009 (ip), vehicle: saline 107 % of control | dose: 40.0 mg/kg/injection, schedule: Q01DX005 (ip), vehicle: saline 101 % of control

CCC1(O)CC2CN(CCc3c([nH]c4ccccc34)C(C(=O)OC)(c3cc4c(cc3OC)N(C)C3C(O)(C(=O)NCCO)C(O)C5(CC)C=CCN6CCC43C65)C2)C1 (centres undefined)
inactive: dose: 0.05 mg/kg/injection, schedule: Q01DX005 (ip), vehicle: saline 108 % of control | dose: 0.1 mg/kg/injection, schedule: Q01DX005 (ip), vehicle: saline 113 % of control | dose: 0.2 mg/kg/injection, schedule: Q01DX005 (ip), vehicle: saline 117 % of control | dose: 0.4 mg/kg/injection, schedule: Q01DX005 (ip), vehicle: saline 108 % of control | dose: 0.8 mg/kg/injection, schedule: Q01DX005 (ip), vehicle: saline 108 % of control

From PubChem BioAssay AID222 (DTP/NCI, 2004)
